# Measurements published in US20230085307A1, “PYRIDAZINONE COMPOUND AND HERBICIDE” (NISSAN CHEMICAL CORPORATION, priority 2019, published 2023).
# Tests used:
# oval-leafed pondweed = assay: Test Example 2: herbicidal activity, application during weed generation under submerged conditions (Table 17, symbol C); type: in vivo, oval-leafed pondweed (Monochoria vaginalis); conditions: AAH 320 g/ha; application during weed generation, submerged conditions
# Summary of the method: (§1)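 Mixed weed seedlings in alluvial soil under a 4 cm water layer, greenhouse-grown at 25–30° C. Compound given as a diluted emulsion into the floodwater at the 1–2 leaf stage; response graded after three weeks.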
# barnyard grass [1] = assay: Test Example 5: herbicidal effect by foliage application, plastic box (Table 20, symbol H); type: in vivo, barnyard grass (Echinochloa crus-galli); conditions: foliage application after 14-day growth, evaluated three weeks after application
# Summary of the method: (§2)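 Sow seeds spot-wise in sterilized diluvial soil; cover with ~1.5 cm soil. Grow 14 days in greenhouse, 25° C. to 30° C. Spray foliage with emulsion diluted to predetermined amount. Rate effect after 3 weeks.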
# redroot pigweed [2] = assay: Test Example 4: herbicidal effect by soil treatment (Table 19, symbol N); type: in vivo, redroot pigweed (Amaranthus retroflexus); conditions: amount of applied herbicide 320 g/ha
# Summary of the method: (§3)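 Soil-surface application: an emulsion agent diluted with water to the predetermined dose is sprayed uniformly over seeds lying under roughly 1.5 cm of sterilized diluvial soil. Boxes stay in a greenhouse at 25° C. to 30° C. Three weeks later, each species is graded on previously defined criteria.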
# late watergrass [3] = assay: Test Example 1: herbicidal activity, application before weed generation under submerged conditions (Table 16, symbol A); type: in vivo, late watergrass (Echinochloa oryzicola); conditions: amount of applied herbicide 320 g/ha
# Summary of the method: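 Alluvial soil was flooded to 4 cm depth, weed seeds were sown mixed and 2.5-leaf rice seedlings were transplanted. On sowing day, the compound's emulsion, diluted in water to a set dose, was applied to the water surface. Plants grew at 25–30 °C and were scored 0–5 after three weeks.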
# Chinese sprangletop = assay: Test Example 3: herbicidal effect by foliage application, Wagner pot (Table 18, symbol D); type: in vivo, chinese sprangletop (Leptochloa chinensis); conditions: 320 g/ha
# Summary of the method: (§4)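 Plants were sown in alluvial soil held under 0.1–0.5 cm standing water and grown 14 days in a greenhouse at 25–30 °C. An emulsifiable formulation, water-diluted to the set dose, was then sprayed onto the foliage, and effects were scored three weeks later using previously defined criteria.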
# barnyard grass [4] = assay: Test Example 3: herbicidal effect by foliage application, Wagner pot (Table 18, symbol H); type: in vivo, barnyard grass (Echinochloa crus-galli); conditions: 320 g/ha
# Summary of the method: as §4
# velvetleaf [5] = assay: Test Example 5: herbicidal effect by foliage application, plastic box (Table 20, symbol M); type: in vivo, velvetleaf (Abutilon theophrasti); conditions: foliage application after 14-day growth, evaluated three weeks after application
# Summary of the method: as §2
# wild oat = assay: Test Example 5: herbicidal effect by foliage application, plastic box (Table 20, symbol I); type: in vivo, wild oat (Avena fatua); conditions: foliage application after 14-day growth, evaluated three weeks after application
# Summary of the method: as §2
# velvetleaf [6] = assay: Test Example 4: herbicidal effect by soil treatment (Table 19, symbol M); type: in vivo, velvetleaf (Abutilon theophrasti); conditions: amount of applied herbicide 320 g/ha
# Summary of the method: as §3
# green foxtail [7] = assay: Test Example 4: herbicidal effect by soil treatment (Table 19, symbol G); type: in vivo, green foxtail (Setaria viridis); conditions: amount of applied herbicide 320 g/ha
# Summary of the method: as §3
# redroot pigweed [8] = assay: Test Example 5: herbicidal effect by foliage application, plastic box (Table 20, symbol N); type: in vivo, redroot pigweed (Amaranthus retroflexus); conditions: foliage application after 14-day growth, evaluated three weeks after application
# Summary of the method: as §2
# lambsquarters = assay: Test Example 5: herbicidal effect by foliage application, plastic box (Table 20, symbol O); type: in vivo, lambsquarters (Chenopodium album); conditions: foliage application after 14-day growth, evaluated three weeks after application
# Summary of the method: as §2
# late watergrass [9] = assay: Test Example 2: herbicidal activity, application during weed generation under submerged conditions (Table 17, symbol A); type: in vivo, late watergrass (Echinochloa oryzicola); conditions: AAH 320 g/ha; application during weed generation, submerged conditions
# Summary of the method: as §1
# green foxtail [10] = assay: Test Example 5: herbicidal effect by foliage application, plastic box (Table 20, symbol G); type: in vivo, green foxtail (Setaria viridis); conditions: foliage application after 14-day growth, evaluated three weeks after application
# Summary of the method: as §2
# windgrass [11] = assay: Test Example 4: herbicidal effect by soil treatment (Table 19, symbol L); type: in vivo, windgrass (Apera spica-venti); conditions: amount of applied herbicide 320 g/ha
# Summary of the method: as §3
# windgrass [12] = assay: Test Example 5: herbicidal effect by foliage application, plastic box (Table 20, symbol L); type: in vivo, windgrass (Apera spica-venti); conditions: foliage application after 14-day growth, evaluated three weeks after application
# Summary of the method: as §2
# [13] = amount of applied herbicide 320 g/ha
Structure (SMILES),"herbicidal effect rating, C: oval-leafed pondweed (oval-leafed pondweed)","Herbicidal effect by soil treatment, N: redroot pigweed (redroot pigweed [2])","Herbicidal effect, A: late watergrass (late watergrass [3])",herbicidal effect on Chinese sprangletop (D) (Chinese sprangletop),herbicidal effect on barnyard grass (H) (barnyard grass [4]),"Herbicidal effect by soil treatment, M: velvetleaf (velvetleaf [6])","Herbicidal effect by soil treatment, G: green foxtail (green foxtail [7])","herbicidal effect rating, A: late watergrass (late watergrass [9])","Herbicidal effect by soil treatment, L: windgrass (windgrass [11])",also measured
CCCC(=O)Oc1c(C)nn(C)c(=O)c1-c1c(-c2ccc(SC)cc2)sc2c(F)cccc12 [4-051],0 (Herbicidal rate of 5% or less (almost no effect)),5 (Herbicidal rate of 90% or more (almost completely withered)),4 (Herbicidal rate of 70% or more and less than 90%),3 (Herbicidal rate of 40% or more and less than 70%),5 (Herbicidal rate of 90% or more (almost completely withered)),0 (Herbicidal rate of 5% or less (almost no effect)),1 (Herbicidal rate of 5% or more and less than 20%),3 (Herbicidal rate of 40% or more and less than 70%),0 (Herbicidal rate of 5% or less (almost no effect)),herbicidal effect on H: barnyard grass (evaluation grade 0-5) (barnyard grass [1]; 320 g/ha): 4 (Herbicidal rate of 70% or more and less than 90%); herbicidal effect on M: velvetleaf (evaluation grade 0-5) (velvetleaf [5]; 320 g/ha): 5 (Herbicidal rate of 90% or more (almost completely withered)); herbicidal effect on I: wild oat (evaluation grade 0-5) (wild oat; 320 g/ha): 4 (Herbicidal rate of 70% or more and less than 90%); herbicidal effect on N: redroot pigweed (evaluation grade 0-5) (redroot pigweed [8]; 320 g/ha): 5 (Herbicidal rate of 90% or more (almost completely withered)); herbicidal effect on O: lambsquarters (evaluation grade 0-5) (lambsquarters; 320 g/ha): 5 (Herbicidal rate of 90% or more (almost completely withered)); herbicidal effect on G: green foxtail (evaluation grade 0-5) (green foxtail [10]; 320 g/ha): 3 (Herbicidal rate of 40% or more and less than 70%); herbicidal effect on L: windgrass (evaluation grade 0-5) (windgrass [12]; 320 g/ha): 5 (Herbicidal rate of 90% or more (almost completely withered))
Cc1nn(C)c(=O)c(-c2c(-c3ccccc3OC(F)(F)F)sc3c(Cl)cccc23)c1O [4-076],0 (Herbicidal rate of 5% or less (almost no effect)),4 (Herbicidal rate of 70% or more and less than 90%),0 (Herbicidal rate of 5% or less (almost no effect)),3 (Herbicidal rate of 40% or more and less than 70%),4 (Herbicidal rate of 70% or more and less than 90%),2 (Herbicidal rate of 20% or more and less than 40%),0 (Herbicidal rate of 5% or less (almost no effect)),3 (Herbicidal rate of 40% or more and less than 70%),0 (Herbicidal rate of 5% or less (almost no effect)),"Herbicidal effect by foliage application, H: barnyard grass (barnyard grass [1]; [13]): 3 (Herbicidal rate of 40% or more and less than 70%); Herbicidal effect by foliage application, M: velvetleaf (velvetleaf [5]; [13]): 4 (Herbicidal rate of 70% or more and less than 90%); Herbicidal effect by foliage application, I: wild oat (wild oat; [13]): 0 (Herbicidal rate of 5% or less (almost no effect)); Herbicidal effect by foliage application, N: redroot pigweed (redroot pigweed [8]; [13]): 5 (Herbicidal rate of 90% or more (almost completely withered)); Herbicidal effect by foliage application, O: lambsquarters (lambsquarters; [13]): 4 (Herbicidal rate of 70% or more and less than 90%); Herbicidal effect by foliage application, G: green foxtail (green foxtail [10]; [13]): 4 (Herbicidal rate of 70% or more and less than 90%); Herbicidal effect by foliage application, L: windgrass (windgrass [12]; [13]): 0 (Herbicidal rate of 5% or less (almost no effect))"
